From publication PMC4865820, “Branched Peptide, B2088, Disrupts the Supramolecular Organization of Lipopolysaccharides and Sensitizes the Gram-negative Bacteria” (Scientific Reports, 2016)
Positions of bridges follow the written chain, without caps; N, C: chain ends. Non-standard residues stand in square brackets, D forms with d. Residues, ends and D or L forms follow the SMILES beside them. Chains are numbered I, II in the order given. *: point of attachment. X1 = CC[C@H](C)CCCCC(=O)*; Dab = NCC[C@H](N)C(=O)O

How the values were obtained:
[1] = tested on: P. aeruginosa ATCC 27853; assay type: cell-based; settings: for Fractional inhibitory concentration of peptide/PMB, combination with Genta: first number in parenthesis; for Fractional inhibitory concentration of peptide/PMB, combination with Genta / Fractional inhibitory concentration of antibiotic, Genta combination: ATCC 27853; for Fractional inhibitory concentration of antibiotic, Genta combination: second number in parenthesis
In short: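 Checkerboard combinations of peptide and antibiotic, each 2-fold diluted up to 1× MIC in MHB, were tested against ~10^6 CFU/ml final inoculum. Plates were incubated 24 h at 37 °C, with growth read at OD600. FICI was the sum of the combination-to-alone MIC ratios for each agent, and the lowest FICI from duplicate experiments was reported.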

[2] = tested on: P. aeruginosa ATCC 9027; experiment: Outer membrane permeability assay (NPN); assay type: cell-based; settings: no unit in table; Fig. S5 axis [Peptide], μM; 10 μM NPN, 5 mM HEPES pH 7.4, ex 355/em 405 nm; average of two titrations; read-out: PC50 (peptide concentration for half-maximal NPN intensity, OM permeability)
In short: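 Overnight MHB-grown cells were washed and resuspended in 5 mM HEPES pH 7.4 to OD600 0.200, then loaded with 10 μM NPN (final), with peptide titrated in after dye stabilization. Fluorescence ex 355/em 405 nm; PC50 is the peptide concentration giving half-maximal intensity, from a sigmoidal fit averaged over two titrations.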

[3] = tested on: P. aeruginosa ATCC 9027; experiment: Mice model of infectious keratitis; assay type: in vivo, C57BL6 mice; settings: for Corneal bacterial burden: 0.15% gatifloxacin or 0.05% B2088 alone
Experimental: The marked synergism between B2088 and gatifloxacin in the mammalian cell culture model prompted us to investigate the efficacy of the combinations in vivo. A mouse model of keratitis was used to examine the efficacy of peptide-antibiotics combinations. After infection of the cornea with P. aeruginosa ATCC 9027 strains, mice were treated with gatifloxacin (0.15% w/v) or B2088 (0.05%) alone as well as gatifloxacin (0.15%) in combination with B2088 (0.05% w/v). […] (Fig. 7c,d and Supplementary Fig. S3).
Wild type C57BL6 (6–8 weeks old and weighs about 20-30 gram) female mice purchased from National University of Singapore were used for this study. P. aeruginosa ATCC 9027 was grown overnight in TSA (Tryptic Soy Agar) at 37 °C. Concentration of 3 × 10^8 bacterial stock was prepared for mice corneal infection with United States Phosphate Buffer (USP) by resuspending few colonies from the overnight cultured TSA plates.
Healthy mice with good corneal clarity were chosen for this study through careful monitoring with slit-lamp biomicroscopy. A total of 60 mice were used for this study (n = 12 for 5 groups) at different time points (day1, day2, day3 post treatment). The animals were anesthetized subcutaneously by 0.2 ml of ketamine (100 mg/ml) and 0.1 ml of xylazil (20 mg/ml) in 0.7 ml of normal saline (0.08 ml/mice). […] Topical application of bacteria suspension (10 μl) was applied to the scratched cornea. All the animals had been treated with the antibiotics or peptide/antibiotics combinations (3 times/day) started from day1 post infection.
At post treatment day1, day 2 and day 3, four animals from each group were euthanized. The infected corneas was dissected and processed for colony counting. Single individual cornea from different groups was homogenized in sterile 0.9% NaCl containing 0.25% BSA and diluted serially (10^1 to 10^2 fold dilution), plated in duplicates on TSA plates and incubated for 48 h at 37 °C. The number of viable bacteria was enumerated as before.

[4] = tested on: K. pneumonia 07955; experiment: Checkerboard assay; assay type: cell-based, K. pneumoniae; settings: for Fractional inhibitory concentration of B2088 used for FICI calculation: first number in parenthesis, in combination with the labelled antibiotic; for Fractional inhibitory concentration of antibiotic used for FICI calculation: second number in parenthesis, in combination with B2088
Experimental: (§1) The synergism between peptides with conventional antibiotics was evaluated using checkerboard assays. For a comparison polymyxin B (PMB) was also tested against each antibiotic. From their stock solutions, two-fold dilutions of each antibiotic and peptide to 1× MIC were prepared in MHB. 50 μl of each peptide concentration was added into the wells of a 96-well polystyrene plates (SPL Life Sciences Co. Ltd, Korea) in a horizontal orientation and the same volume of each antibiotic concentration were then added in a vertical orientation. Bacterial suspensions were prepared in MHB to yield final cell density of ~10^6 CFU/ml and 100 μl of bacterial suspension was mixed with each peptide-antibiotic combinations. This procedure was repeated for wells containing 200 μl of peptide alone and 200 μl of antibiotic alone in various concentrations. The positive and negative controls contained 200 μl of inoculum and MHB alone respectively. The plates were incubated at 37 °C for 24 hours and the optical density at 600 nm (OD600) was monitored as before. Fractional inhibitory concentration index (FICI) for all antibiotic- peptide combinations was calculated through the summation of (MIC of peptide in the combination/ MIC of peptide alone) and (MIC of antibiotics in combination/MIC of antibiotic alone). The experiments were performed in two independent duplicates and the combinations that gave the lowest FICI values was reported.

[5] = tested on: K. pneumonia 31158; experiment: Checkerboard assay; assay type: cell-based, K. pneumoniae; settings: for Fractional inhibitory concentration of B2088 used for FICI calculation: first number in parenthesis, in combination with the labelled antibiotic; for Fractional inhibitory concentration of antibiotic used for FICI calculation: second number in parenthesis, in combination with B2088
Experimental: as §1

[6] = tested on: K. pneumonia 4299; experiment: Checkerboard assay; assay type: cell-based, K. pneumoniae; settings: for Fractional inhibitory concentration of B2088 used for FICI calculation: first number in parenthesis, in combination with the labelled antibiotic; for Fractional inhibitory concentration of antibiotic used for FICI calculation: second number in parenthesis, in combination with B2088
Experimental: as §1

Row | Structure (SMILES) | Fractional inhibitory concentration of peptide/PMB, combination with Genta [1] | Fractional inhibitory concentration of antibiotic, Genta combination [1] | EC50 [2] | Reduction of antibiotic use in the presence of B2088 ([3]; 0.05% B2088 with gatifloxacin) | Corneal bacterial burden [3] | Fractional Inhibitory Concentration Index of B2088 with the antibiotic [4] | Fractional inhibitory concentration of B2088 used for FICI calculation [4] | Fractional inhibitory concentration of antibiotic used for FICI calculation [4] | Fractional Inhibitory Concentration Index of B2088 with the antibiotic [5] | Fractional inhibitory concentration of B2088 used for FICI calculation [5] | Fractional inhibitory concentration of antibiotic used for FICI calculation [5] | Fractional Inhibitory Concentration Index of B2088 with the antibiotic [6] | Fractional inhibitory concentration of B2088 used for FICI calculation [6] | Fractional inhibitory concentration of antibiotic used for FICI calculation [6] | Corneal clarity and bacterial load ([3]; topical 0.3% gatifloxacin, 3 times/day, vs PBS-treated mice) | Fractional Inhibitory Concentration Index with Genta ([1]; peptide + gentamicin, P. aeruginosa ATCC 27853)
1 | CC(C)[C@H](NC(=O)[C@H](CCCCN)NC(=O)[C@H](CCCNC(=N)N)NC(=O)CNC(=O)[C@@H](N)CCCNC(=N)N)C(=O)N[C@H](C(=O)N[C@@H](CCCNC(=N)N)C(=O)N[C@@H](CCCNC(=N)N)C(=O)NCCCC[C@H](NC(=O)[C@H](CCCNC(=N)N)NC(=O)[C@H](CCCNC(=N)N)NC(=O)[C@@H](NC(=O)[C@@H](NC(=O)[C@H](CCCCN)NC(=O)[C@H](CCCNC(=N)N)NC(=O)CNC(=O)[C@@H](N)CCCNC(=N)N)C(C)C)C(C)C)C(=O)N[C@@H](CCCCN)C(=O)O)C(C)C [B2088] (I: H-RGRKVVRRKK-OH / II: H-RGRKVVRR; amide I:9-II:C; N-terminus and C-terminus assumed) | (0.25,0.25) | (0.25,0.25) | 13.2 ± 0.4 µM | about 50% | increased bacterial burden | – | – | – | – | – | – | – | – | – | – | –
2 | NC[C@H]1O[C@H](O[C@H]2[C@H](O)[C@@H](O[C@H]3O[C@H](CO)[C@@H](O)[C@H](N)[C@H]3O)[C@H](N)C[C@@H]2N)[C@H](N)C[C@@H]1O [Tobramycin] | – | – | – | – | – | 0.75 | 0.5 | 0.25 | 0.25 | (0.125,0.125) | (0.125,0.125) | 0.25 | (0.125,0.125) | (0.125,0.125) | – | –
3 | COc1c(N2CCNC(C)C2)c(F)cc2c(=O)c(C(=O)O)cn(C3CC3)c12 (centres unmarked) [Gatifloxacin] | – | – | – | – | increased bacterial burden | 0.63 | 0.13 | 0.5 | 0.56 | 0.06 | 0.5 | 0.56 | 0.06 | 0.5 | clear cornea and less bacterial load | –
4 | CC[C@H](C)CCCCC(=O)N[C@@H](CCN)C(=O)N[C@H](C(=O)N[C@@H](CCN)C(=O)N[C@H]1CCNC(=O)[C@H]([C@@H](C)O)NC(=O)[C@H](CCN)NC(=O)[C@H](CCN)NC(=O)[C@H](CC(C)C)NC(=O)[C@@H](Cc2ccccc2)NC(=O)[C@H](CCN)NC1=O)[C@@H](C)O [Polymyxin B, polymyxin B, reference compound] (X1-[Dab]T[Dab][Dab][Dab][dF]L[Dab][Dab]T; lactam 4-C (inferred); N-terminus assumed) | (0.5,0.5) | (0.5,0.5) | 5.82 ± 0.6 µM | – | – | – | – | – | – | – | – | – | – | – | – | 1.0
